Assay results as given in US12203060B1, “Cell culture” (FIBROFIND IP LIMITED, priority 2015, dated 2025).

What was measured:
[1] = test system: precision cut liver slices (PCLS); assay: Albumin production by precision cut liver slices cultured on CMR2 (albumin ELISA); assay type: cell-based; conditions: PCLS on CMR2, fat, fat+LPS or BSA vehicle for 48 h after a 24 h rest period; FIG. 27
Protocol: (§1) Liver tissue was placed in a 10 cm dish containing Hanks Buffered Saline Solution (HBSS+, Lonza, BE10-508F). Four to eight mm cores of liver tissue were made using a Stiefel Biopsy Punch. Cores were then transferred to a metal mould and submerged in 2.5-3.0% low gelling temperature agarose (Sigma, A9414) and then placed on ice for 2-5 minutes.
(§2) Once set, the cores in agarose were super-glued to a vibratome mounting stage and submersed in the media chamber in ice cold HBSS+prior to cutting on a Leica VT1200 S fully automated vibrating blade microtome. Liver tissue cores were cut at a speed of 0.3 mm/see, and an amplitude 2 mm and thickness (step size) of 250 μm. Slices having a thickness of between 200-400 μm can be used.
Slices were transferred to 3 μm, 8 μm or 100 μm pore inserts provided in static (Griener) or CMR tissue culture plates. […]
100 μl of the slice culture media diluted 1:250 was removed from wells comprising slices in either a static culture plate, a unidirectional system or the CMR culture plate apparatus which was rocked using a rocking apparatus as described herein. The media was used to quantify albumin release using the Rat Albumin ELISA Quantitation Set (catalogue number E110-125) or Human Albumin ELISA Quantitation Set (catalogue number E80-129) following manufacturer's instructions.

[2] = test system: precision cut liver slices (PCLS); assay: Expression of fibrosis genes in precision cut liver slices cultured on CMR2; assay type: cell-based; conditions: for expression of fibrosis genes (pro-collagen 1, aSMA, TIMP1): PCLS on CMR2, stimulated for 72 h after a 24 h rest period, FIG. 31
Protocol: as §1, §2
Slices were transferred to 3 μm, 8 μm or 100 μm pore inserts provided in static (Griener) or CMR tissue culture plates. The CMR tissue culture plates of embodiments of the invention comprised either holes between adjacent wells or were rapid prototyped from CAD design to comprise slots between wells. The wells contained slice culture media. The slices were cultured under static, unidirectional or rocked conditions at 37° C. in 5% carbon dioxide in a humidified tissue culture incubator. Twelve or twenty-four well CMR tissue culture plates were used, as indicated.
The slice culture media comprised the following components: • Williams Medium E (Sigma, W4128) • 2% Heat Inactivated Fetal Bovine Serum (Gibco) • Penicillin-Streptomycin (Sigma, P0781) • L-glutamine (Sigma, G7513) • Pyruvate (Sigma, S8636) • 0.5 uM Insulin/transferrin selenium mix (Gibco 51500-056) • 0.1 uM dexamethasone (Sigma, D4902) Urea Assay (Universal Biologicals Cambridge)

[3] = PCLS on CMR2, 3 ng/ml TGFb1 for 48 h, compared to control (untreated), FIG. 26B

Q: Which albumin production [1] does the source give for Lipopolysaccharide [LPS] here?
A: did not affect

Q: With “transforming growth factor beta 1 [TGFb1]” as the molecule, how does the “expression of the fibrosis gene alpha-smooth muscle actin (aSMA)” value [2, 3] read?
A: induced expression

Q: What about the “expression of the fibrosis gene collagen I” value [2, 3] of the same molecule?
A: induced expression

Q: What about the “expression of the fibrosis gene tissue inhibitor of metalloprotease 1 (TIMP1)” value [2, 3] of the same molecule?
A: induced expression

Q: For transforming growth factor beta [TGFb], which “expression of fibrosis genes (pro-collagen 1, aSMA, TIMP1)” value [2] is on record?
A: induce expression

B1: platelet derived growth factor b (protein, UniProt P01127 82-190, looked up)
Platelet-derived growth …: SLGSLTIAEPAMIAECKTRTEVFEISRRLIDRTNANFLVWPPCVEVQRCSGCCNNRNVQCRPTQVQLRPVQVRKIEIVRKKPIFKKATVTLEDHLACKCETVAAARPVT
modifications: homodimer
notes: fibrosis-stimulating factor added to liver slices
Q: B1 was tested. Which “expression of fibrosis genes (pro-collagen 1, aSMA, TIMP1)” value [2] did it give?
A: induce expression
